Reference: patent publication US5137892A, “Quinoline, naphthyridine and pyridobenzoxazine derivatives” (Abbott Laboratories, priority 1990, dated 1992)
Converted amounts (≈) assume the structure as drawn.

Experiments:
Experiment in all cases: In Vitro Antibacterial Activity, agar dilution MIC
Assay type in all cases: cell-based
[1] = system: Escherichia coli KNK 437; settings: E. coli KNK 437; BHI agar dilution, 20-24 hours; unit assumed
Description: (§1) The activity of the compounds of the present invention was tested against a wide variety of bacteria using standard assay procedures. Minimum inhibitory concentrations (MICs) were determined by the agar dilution method, described below, using Brain Heart Infusion agar.
(§2) Twelve petri dishes were prepared, each containing successive aqueous 2-fold dilutions of the test compounds mixed with 10 mL of sterilized Brain Heart Infusion (BHI) agar. Each plate was inoculated with 100-fold (or 10-fold, for slow-growing strains such as Micrococcus and Streptococcus) dilutions of up to 32 different microorganisms using a Steers replicator block calibrated to deliver approximately 10^4 colony forming units (CFUs). The inoculated plates were incubated at about 35°-37° C. for approximately 20-24 hours. In addition, a control plate, using BHI agar containing no test compound, was prepared and incubated at the beginning and at the end of each test. Ciprofloxacin was used as the reference antibiotic.
(§3) The MIC was defined as the lowest concentration of test compound yielding no growth (a slight haze or sparsely isolated colonies at the inoculum spot as compared to the growth control contaning no test compound.

[2] = system: Micrococcus luteus ATCC 4698; settings: M. luteus ATCC 4698; BHI agar dilution, 20-24 hours; unit assumed
Description: as §1, §2, §3

[3] = system: Providencia stuartii CMX 640; settings: P. stuartii CMX 640; BHI agar dilution, 20-24 hours; unit assumed
Description: as §1, §2, §3

[4] = system: Staphylococcus aureus 45 RAR2; settings: S. aureus 45 RAR2; BHI agar dilution, 20-24 hours; unit assumed
Description: as §1, §2, §3

[5] = system: Staphylococcus aureus 642A; settings: S. aureus 642A; BHI agar dilution, 20-24 hours; unit assumed
Description: as §1, §2, §3

[6] = system: Staphylococcus aureus ATCC 6538P; settings: S. aureus ATCC 6538P; BHI agar dilution, 20-24 hours; unit assumed
Description: as §1, §2, §3

[7] = system: Staphylococcus aureus CMX 553; settings: S. aureus CMX 553; BHI agar dilution, 20-24 hours; unit assumed
Description: as §1, §2, §3

[8] = system: Staphylococcus epidermidis 3519; settings: S. epidermidis 3519; BHI agar dilution, 20-24 hours; unit assumed
Description: as §1, §2, §3

[9] = system: Streptococcus pyogenes 2548 INDUC; settings: S. pyogenes 2548 INDUC; BHI agar dilution, 20-24 hours; unit assumed
Description: as §1, §2, §3

Work on CN(C)CC1COC2(CCN(c3nc4c(cc3F)c(=O)c(C(=O)O)cn4-c3ccc(F)cc3F)C2)O1 (stereo not drawn) [Example 445] yielded an MIC values [1] of 12.5 µg/mL (≈ 24.8 µM), an MIC values [2] of 12.5 µg/mL (≈ 24.8 µM) and an MIC values [3] of over 100 µg/mL. It also gave an MIC values [4] of 0.78 µg/mL (≈ 1.55 µM), an MIC values [5] of 0.39 µg/mL (≈ 0.773 µM) and an MIC values [6] of 0.2 µg/mL (≈ 0.396 µM). For the same molecule, the MIC values [7] was 0.39 µg/mL (≈ 0.773 µM), the MIC values [8] was 0.39 µg/mL (≈ 0.773 µM) and the MIC values [9] was 0.2 µg/mL (≈ 0.396 µM).
